According to patent publication US11261185B2, “Bicyclic heterocyclic derivatives” (Merck Patent GmbH, priority 2015, dated 2022):

Tested on: PDH-E1 alpha (pSer300) in HEK293T cells
Assay: Cellular immunofluorescence assay for compound activities (PDH-E1 alpha pSer300)
Type: cell-based, human
Conditions: 5 hours incubation, Anti-PDH-E1 alpha (pSer300) immunofluorescence, read-out: IC50 (cell data)
Description: Cellular Assay for Determination of Compound Activities
Compound activities were determined in a cellular immunofluorescence assay. Human HEK293T cells were seeded into black 384-well plates with clear bottom and grown overnight.
Next day, test compounds were added to the wells and the plates incubated for 5 hours. Following this, cells were fixed with formaldehyde, permeabilised and blocked. The primary antibody, Anti-PDH-E1 alpha (pSer300), AP1064 (Merck Millipore) was added and incubated overnight in the plate wells. Next, cells were washed and the seconday antibody, Alexa Fluor 488, goat anti-rabbit ab (A-11008, Invitrogen) was added together with Hoechst 33258 (H3569, Invitrogen) and incubated for 1 hour in the plate wells. Finally, cells were washed and the plates were measured on the laser scanning cytometer acumen hci (TTpLabtech).
The raw data were normalized against a pharmacological inhibitor control and dose response curves were generated by plotting the percent effect values using the software package Genedata screener (Genedata).

SMILES	IC50
C[C@@](O)(C(=O)N1CCc2c(ncn2-c2ccc(F)cc2)C1)C(F)(F)F [Compound A44, (R)-3,3,3-Trifluoro-1-[1-(4-fluoro-phenyl)-1,4,6,7-tetrahydro-imidazo[4,5-c]pyridin-5-yl]-2-hydroxy-2-methyl-propan-1-one]	3 to 50 µM
C[C@@](O)(C(=O)N1CCc2c(ncn2-c2ccc(Cl)cc2)C1)C(F)(F)F [Compound A45, (R)-1-[1-(4-Chloro-phenyl)-1,4,6,7-tetrahydro-imidazo[4,5-c]pyridin-5-yl]-3,3,3-trifluoro-2-hydroxy-2-methyl-propan-1-one]	3 to 50 µM
